Laboratory results published in patent US20090131306A1, “CHEMICALLY MODIFIED CYCLIC PEPTIDES CONTAINING CELL ADHESION RECOGNITION (CAR) SEQUENCES AND USES THEREFOR” (ADHEREX TECHNOLOGIES, INC., priority 2007, published 2009).
*1 amine or outer side, *2 acyl side, *3 side chain or, on linkers, in order; H or OH if unused. Where a SMILES comes first, the peptide text is derived from it. Bridges are numbered along the chain shown (N, C = ends). [ ]: non-standard residue; d: D form. Phe(4-yl) = O=C([C@H](Cc1ccc([*:3])cc1)N[*:1])[*:2]

Legend:
Aqueous solubility = type: physicochemical; conditions: result in words
Stability testing in PBS = conditions: result in words, relative to unmodified ADH-1
[1] = Stability testing in human whole blood; conditions: for stability in whole blood: human whole blood, result in words, relative to unmodified ADH-1
[2] = humans, following i.v. administration; cited from earlier work

| SMILES | aqueous solubility (Aqueous solubility) | stability in PBS (Stability testing in PBS) | stability in whole blood [1] | circulating half-life [2] [h] | excreted unchanged in the urine [2] [%] | half-life ([1]; human, whole blood) [h] |
| --- | --- | --- | --- | --- | --- | --- |
| CC(=O)N[C@H]1CSCc2cccc(c2)CSC[C@@H](C(N)=O)NC(=O)[C@H](C(C)C)NC(=O)[C@H](C)NC(=O)[C@H](Cc2c[nH]cn2)NC1=O [ADH100705-T] | relatively low | much less so | much less so |  |  |  |
| CC(=O)N[C@H]1CSCC(=O)CSC[C@@H](C(N)=O)NC(=O)[C@H](C(C)C)NC(=O)[C@H](C)NC(=O)[C@H](Cc2c[nH]cn2)NC1=O [ADH100706-T] |  | failed to result in improved stability | failed to result in improved stability |  |  |  |
| CC(=O)NC1CSCc2ccccc2CSCC(C(N)=O)NC(=O)[C@H](C(C)C)NC(=O)[C@H](C)NC(=O)[C@H](Cc2c[nH]cn2)NC1=O (stereo partly drawn) [ADH100710-T, 8R, 11S, 14S, 17S, 20R 20-Acetylamino-17-(1H-imidazol-4-ylmethyl)-11-isopropyl-14-methyl-10,13,16,19-tetraoxo-5,7,8,10,11,12,13,14,15,16,17,18,19,20,21,23-hexadecahydro-9H-6,22-dithia-9,12,15,18-tetraaza-benzocyclohenicosene-8-carboxylic acid amide] |  | stable | stable |  |  |  |
| CC(=O)NC1CSCC(O)CSCC(C(N)=O)NC(=O)[C@H](C(C)C)NC(=O)[C@H](C)NC(=O)[C@H](Cc2c[nH]cn2)NC1=O (stereo partly drawn) [ADH100713-T, 3R, 6S, 9S, 12S, 15R 15-Acetylamino-19-hydroxy-12-(1H-imidazol-4-ylmethyl)-6-isopropyl-9-methyl-5,8,11,14-tetraoxo-1,17-dithia-4,7,10,13-tetraaza-cycloicosane-3-carboxylic acid amide] |  | stable | stable |  |  |  |
| CC(=O)N[C@H]1CSSC[C@@H](C(N)=O)NC(=O)[C@H](C(C)C)NC(=O)[C@H](C)NC(=O)[C@H](Cc2c[nH]cn2)NC1=O [ADH-1, N-Ac-CHAVC-NH2] |  |  |  | 2.5 | 30 | ~2 |
| CC(=O)N[C@H]1CSC[C@H](O)CSC[C@@H](C(N)=O)NC(=O)[C@H](C(C)C)NC(=O)[C@H](C)NC(=O)[C@H](Cc2c[nH]cn2)NC1=O [ADH-100712-T] |  | stable | failed to show improved stability |  |  |  |
| CC(=O)N[C@H]1Cc2ccc(cc2)SC[C@@H](C(N)=O)NC(=O)[C@H](C(C)C)NC(=O)[C@H](C)NC(=O)[C@H](Cc2c[nH]cn2)NC1=O [ADH-100716-T, 4R, 7S, 10S, 13S, 16S 16-Acetylamino-13-(1H-imidazol-4-ylmethyl)-7-isopropyl-10-methyl-6,9,12,15-tetraoxo-2-thia-5,8,11,14-tetraaza-bicyclo[16.2.2]docosa 1(21), 18(22), 19-triene-4-carboxylic acid amide] (Ac-[Phe(4-yl)]HAVC-NH2; thioether 1-5) |  |  | improved blood stability |  |  |  |
